From ChEMBL document CHEMBL1201862, “PubChem BioAssay data set” (2004)
Active and inactive are the calls of the source.

Key:
[1] = target: Induced myeloid leukemia cell differentiation protein Mcl-1 (Homo sapiens, UniProt Q07820); type: functional
[2] = HepG2 cell cytotoxicity, dose response, cytotoxicity control for Shn3 inhibitor project, CellTiter-Glo, cherry-picked (AID 624134); type: functional, cell-based
[3] = control 3'UTR Renilla luciferase suppression, dose response, counter-screen for Shn3 inhibitor project, cell-based, Clone20-Shn3RL, cherry-picked (AID 624133); type: functional
[4] = Shn3 3'UTR reporter inhibitors, dose response, cell-based, Clone20 osteoblasts, firefly luciferase, cherry-picked (AID 624132); type: functional;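 also: firefly luciferase luminescence from reporter carrying the Shn3 3'UTR in osteoblasts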
[5] = target: T1, Short transient receptor potential channel 4 (Mus musculus, UniProt Q9QUQ5); test: mouse TRPC4 channel activators, dose response, cell-based, HEK293 TRPC4/mu-opioid, Fluo-4 calcium (AID 434937); type: functional
T1 sequence (Q9QUQ5 whole entry): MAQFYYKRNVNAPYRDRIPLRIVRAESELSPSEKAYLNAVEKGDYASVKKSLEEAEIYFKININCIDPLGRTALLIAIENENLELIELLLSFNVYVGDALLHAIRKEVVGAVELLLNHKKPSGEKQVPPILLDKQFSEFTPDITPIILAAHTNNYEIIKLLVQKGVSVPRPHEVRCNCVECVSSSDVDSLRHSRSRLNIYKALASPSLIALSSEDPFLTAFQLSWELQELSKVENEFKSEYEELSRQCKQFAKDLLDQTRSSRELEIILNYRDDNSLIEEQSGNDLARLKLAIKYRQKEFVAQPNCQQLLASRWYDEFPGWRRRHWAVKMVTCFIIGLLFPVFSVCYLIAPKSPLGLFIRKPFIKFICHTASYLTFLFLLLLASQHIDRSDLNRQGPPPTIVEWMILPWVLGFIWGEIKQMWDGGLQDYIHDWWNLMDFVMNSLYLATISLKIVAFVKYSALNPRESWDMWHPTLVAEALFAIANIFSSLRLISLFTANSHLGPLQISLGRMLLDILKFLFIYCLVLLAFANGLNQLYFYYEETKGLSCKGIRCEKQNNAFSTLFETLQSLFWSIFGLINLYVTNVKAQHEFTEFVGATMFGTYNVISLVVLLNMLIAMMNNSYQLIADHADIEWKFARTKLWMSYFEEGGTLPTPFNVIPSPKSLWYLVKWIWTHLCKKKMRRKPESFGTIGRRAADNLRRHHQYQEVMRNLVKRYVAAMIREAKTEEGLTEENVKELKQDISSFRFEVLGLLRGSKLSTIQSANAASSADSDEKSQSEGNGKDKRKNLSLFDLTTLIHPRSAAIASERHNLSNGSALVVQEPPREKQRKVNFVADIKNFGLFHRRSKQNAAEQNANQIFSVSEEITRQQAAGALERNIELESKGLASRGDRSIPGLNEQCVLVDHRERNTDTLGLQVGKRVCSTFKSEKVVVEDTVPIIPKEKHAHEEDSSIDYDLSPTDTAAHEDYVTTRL

[6] = cytotoxicity in HEK-293T cells, dose response, cytotoxicity control for TCR NF-kB inhibitor project, luminescence, T-cell screen hits (AID 489026); type: functional, cell-based;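 also: cells exposed to compound about 14 hours before the viability readout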
[7] = target: T2, RNA-binding protein pos-1 (Caenorhabditis elegans, UniProt G5EF15); test: inhibitors of POS-1/mex-3 RNA binding, dose response, biochemical, fluorescence polarization (AID 1964);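 also: purified POS-1 fused to maltose binding protein made in E. coli; potency of compounds blocking POS-1 binding to fluorescent RNA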
T2 sequence (G5EF15 whole entry): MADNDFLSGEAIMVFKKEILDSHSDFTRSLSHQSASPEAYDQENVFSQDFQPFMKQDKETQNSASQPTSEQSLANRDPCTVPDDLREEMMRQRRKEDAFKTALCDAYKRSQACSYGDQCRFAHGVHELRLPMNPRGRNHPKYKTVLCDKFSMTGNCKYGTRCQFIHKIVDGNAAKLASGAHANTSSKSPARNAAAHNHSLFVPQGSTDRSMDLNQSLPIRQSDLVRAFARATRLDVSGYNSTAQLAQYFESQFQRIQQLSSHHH

[8] = target: T3, Zinc finger protein mex-5 (Caenorhabditis elegans, UniProt Q9XUB2); test: MEX-5/TCR-2 RNA interaction inhibitors, dose response, biochemical, C. elegans, fluorescence polarization (AID 1960)
T3 sequence (Q9XUB2 whole entry): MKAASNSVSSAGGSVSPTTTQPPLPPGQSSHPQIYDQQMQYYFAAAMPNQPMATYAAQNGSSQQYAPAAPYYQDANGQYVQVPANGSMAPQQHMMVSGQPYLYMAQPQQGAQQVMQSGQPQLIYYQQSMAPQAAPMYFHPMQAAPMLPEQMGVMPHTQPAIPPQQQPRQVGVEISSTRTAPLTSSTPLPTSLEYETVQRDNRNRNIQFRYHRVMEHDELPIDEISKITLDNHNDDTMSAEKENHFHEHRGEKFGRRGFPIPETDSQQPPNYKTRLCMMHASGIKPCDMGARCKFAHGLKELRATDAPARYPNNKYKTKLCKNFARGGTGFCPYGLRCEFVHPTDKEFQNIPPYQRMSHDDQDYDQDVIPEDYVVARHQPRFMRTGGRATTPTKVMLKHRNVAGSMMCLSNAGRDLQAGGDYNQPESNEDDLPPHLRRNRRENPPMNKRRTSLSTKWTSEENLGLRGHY

[9] = test system: HEK293; test: inhibitors of LMP1-driven NF-kB reporter, dose response, cell-based, HEK293, luciferase, cherry-pick (AID 588343); type: functional; settings: Homo sapiens
[10] = target: Nonstructural protein 1 (Influenza A virus, UniProt Q194T2); type: functional, Influenza A virus (A/California/07/2009(H1N1))
[11] = test system: Streptococcus sp. 'group A'; test: growth inhibition of control SK(-) GAS strain, dose response, counter-screen for streptokinase expression inhibitor project, luminescence, kanamycin, BacTiterGlo, confirmation (AID 1900); type: functional, organism-based
[12] = test system: Streptococcus; test: Group A Streptococcus viability loss, dose response, counter-screen for streptokinase expression inhibitor project, luminescence, BacTiterGlo (AID 1915); type: functional, organism-based;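 also: potency for reduction of bacterial viability or growth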

Chain of Nonstructural protein 1 (Q194T2 whole entry): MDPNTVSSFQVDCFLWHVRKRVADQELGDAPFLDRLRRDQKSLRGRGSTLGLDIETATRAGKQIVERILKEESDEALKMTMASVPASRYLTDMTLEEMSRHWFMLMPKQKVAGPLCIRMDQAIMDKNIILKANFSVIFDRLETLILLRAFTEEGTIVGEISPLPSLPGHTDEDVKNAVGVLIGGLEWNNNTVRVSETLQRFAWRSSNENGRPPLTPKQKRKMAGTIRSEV
Chain of Induced myeloid leukemia cell differentiation protein Mcl-1 (Q07820 whole entry): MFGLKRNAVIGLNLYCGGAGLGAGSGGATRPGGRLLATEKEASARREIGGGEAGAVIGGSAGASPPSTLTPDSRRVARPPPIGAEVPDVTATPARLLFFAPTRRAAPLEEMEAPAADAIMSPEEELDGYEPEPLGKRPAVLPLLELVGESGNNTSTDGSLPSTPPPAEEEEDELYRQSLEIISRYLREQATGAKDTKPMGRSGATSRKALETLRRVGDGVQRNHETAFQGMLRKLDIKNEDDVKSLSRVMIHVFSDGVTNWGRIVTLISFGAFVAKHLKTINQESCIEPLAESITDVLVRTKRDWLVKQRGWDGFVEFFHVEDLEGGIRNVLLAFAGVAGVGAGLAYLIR

CCC(C)N1C(=O)/C(=C/c2ccc3c(c2)CCN3CCCCl)C(=O)NC1=S (stereo not given)
IC50 [1]: 5.31 µM (active)

Cc1cc(C)c(-c2csc(NC(=O)CCCc3nc(O)c4ccccc4n3)n2)c(C)c1
AC50 [2]: > 70 µM (inactive)
AC50 [3]: 5.38 µM (active)
AC50 [4]: 2.97 µM (active)

Cc1onc(-c2ccccc2Cl)c1C(=O)N1CCN(C/C=C/c2ccccc2)CC1
EC50 [5]: 5.96 µM (active)

CC1Sc2ccc(S(=O)(=O)N3CCC(C(=O)Nc4cccc(Cl)c4)CC3)cc2NC1=O (stereo not given)
AC50 [2]: 44.6 µM (active)
AC50 [3]: 8.77 µM (active)
AC50 [4]: 3.27 µM (active)

CCOc1ccccc1CN1CCNC(=O)C1CC(=O)N(C)CCc1ccccn1 (stereo not given)
EC50 [5]: 2.11 µM (active)

Cc1ccc(O)c(NC(=O)CCC2CCCCC2)c1
IC50 [6]: > 80 µM (inactive)

CC1=NN(C(N)=S)C(=O)C1N=Nc1cccc(C(=O)O)c1 (stereo not given)
EC50 [7]: 35.1 µM (active)
EC50 [8]: 22.7 µM (active)
AC50 [9]: 33.1 µM (active)

CN1CCN(c2cc(N3CCCCCC3)c(F)cc2[N+](=O)[O-])CC1
IC50 [10]: > 100 µM (active)

CC1Cc2ccccc2N1c1ncnc(N)c1[N+](=O)[O-] (stereo not given)
AC50 [9]: 2.41 µM (active)

Cc1ccccc1OCC(=O)NNC(=S)NC(=O)c1ccco1
EC50 [11]: 0.599 µM (active)
EC50 [12]: 2.45 µM (active)
EC50 [5]: 9.44 µM (active)

CN1CCN(C(=O)c2cccc(-c3cc(O)c4ncccc4c3)c2)CC1
IC50 [10]: 11.4 µM (active)

CCOC(=O)[C@@H]1CCNC[C@@H]1c1ccccc1
EC50 [5]: 3.35 µM (active)
